Data from patent publication US10865216B2, “Tricyclic Gyrase inhibitors” (MERCK SHARP & DOHME CORP., priority 2012, dated 2020).
Values after ≈ are worked out from the molar mass of the structure shown. Where two headings read alike, the source gives them in different places.

Columns and labels:
[1] = test system: S. aureus ATCC 13709; assay: MIC, S. aureus ATCC 13709; type: cell-based; conditions: for MIC: Staphylococcus aureus; for SA MIC: Table 11, compounds wherein L = CH2
[2] = test system: E. coli ATCC 25922; assay: MIC, E. coli ATCC 25922; type: cell-based; conditions: for MIC: Escherichia coli; for EC8 MIC: Table 11, L = CH2
[3] = S. aureus, Alamar Blue read after overnight incubation at 35° C.
[4] = E. coli, Alamar Blue read after overnight incubation at 35° C.
[5] = ATCC13709, S. aureus, Alamar Blue read after overnight incubation at 35° C., read-out: MIC Sa
[6] = ATCC25922, E. coli, Alamar Blue read after overnight incubation at 35° C., read-out: MIC Ec
[7] = ATCC13709, Table 15, R2 is joined to R4, read-out: SA MIC
[8] = ATCC25922, Table 15, R2 is joined to R4, EC8 not defined, read-out: EC8 MIC

CNc1cc(F)cc2c1[nH]c1nc(Oc3cnc(C)nc3)nc(N3CCC4(CCNC4)C3)c12 (centres unmarked) [Compound 4.126]
MIC Sa [1, 3]: ≤0.5 µg/mL
MIC Ec [2, 4]: 2 µg/mL (≈ 4.46 µM)

C=Cc1cc(F)cc2c1[nH]c1nc(Oc3cnc(C)nc3)nc(N3C[C@H]4C[C@@H]3C[C@H]4N)c12 [Compound 10.84]
MIC Sa ([1]; Table 18, Sa): ≤ 0.5 µg/mL
MIC Ec ([2]; Table 18, Ec): ≤ 0.5 µg/mL

CNc1cc(F)cc2c1[nH]c1nc(Oc3cncc(F)c3)nc(N3CC4C(N)C4C3)c12 (centres unmarked) [Compound 4.055]
MIC Sa [1, 3]: ≤0.5 µg/mL
MIC Ec [2, 4]: ≤0.5 µg/mL

CNc1cc(F)c(C#N)c2c1[nH]c1nc(Oc3cnc(C)nc3)nc(N3C[C@H]4CCN[C@H]4C3)c12 [Compound 10.70]
MIC Sa ([1]; Table 18, Sa): ≤ 0.5 µg/mL
MIC Ec ([2]; Table 18, Ec): ≤ 0.5 µg/mL

CNc1cc(F)cc2c1[nH]c1nc(Oc3cncnc3)nc(N3CC4CCC(N)C4C3)c12 (centres unmarked) [Compound 4.016]
MIC Sa [1, 3]: ≤0.5 µg/mL
MIC Ec [2, 4]: 1 µg/mL (≈ 2.3 µM)

CNc1cccc2c1[nH]c1nc(Oc3cnc(C)nc3)cc(N3CC4C(N)C4C3)c12 (centres unmarked) [Compound 3.29]
MIC [1, 5]: ≤ 0.5 µg/mL
MIC [2, 6]: ≤ 0.5 µg/mL

CNc1cc(F)cc2c1[nH]c1nc(Oc3cnc(C)nc3)nc(-c3ccc(Cl)cc3N)c12 [Compound 4.161]
MIC Sa [1, 3]: ≤0.5 µg/mL
MIC Ec [2, 4]: ≤0.5 µg/mL

CNc1cc(F)cc2c1[nH]c1nc3nc(c12)N[C@@H](CN)COCCCNC(=O)CSc1ncc(cn1)O3
MIC [1, 7]: 2 µg/mL (≈ 3.79 µM)
MIC [2, 8]: 8 µg/mL (≈ 15.2 µM)

CNc1cc(F)cc2c1[nH]c1nc(Oc3cnc4cccnc4c3)nc(N3CC4(CC4N)C3)c12 (centres unmarked) [Compound 4.042]
MIC Sa [1, 3]: ≤0.5 µg/mL
MIC Ec [2, 4]: ≤0.5 µg/mL

CNc1cccc2c1[nH]c1nc(Oc3cncnc3)cc(N3C[C@H](NC)C4(CC4)C3)c12 [Compound 3.47]
MIC [1, 5]: ≤ 0.5 µg/mL
MIC [2, 6]: ≤ 0.5 µg/mL

CNc1cc(F)c(Cl)c2c1[nH]c1nc(Oc3cnc(C)nc3)nc(N3C[C@H]4CCN[C@H]4C3)c12 [Compound 10.64]
MIC Sa ([1]; Table 18, Sa): ≤ 0.5 µg/mL
MIC Ec ([2]; Table 18, Ec): ≤ 0.5 µg/mL

Nc1cccc2c1[nH]c1nc(Sc3cnc4cccnc4c3)nc(N3CC4C(N)C4C3)c12 (centres unmarked) [Compound 1.09]
MIC Sa [1, 3]: 64 µg/mL (≈ 145 µM)
MIC Ec [2, 4]: >64 µg/mL

CNc1cc(F)cc2c1[nH]c1nc(Oc3cnc(N)nc3)nc(N3CCC4(CC4N)C3)c12 (centres unmarked) [Compound 4.173]
MIC Sa [1, 3]: ≤0.5 µg/mL
MIC Ec [2, 4]: 1 µg/mL (≈ 2.3 µM)

CNc1cc(F)cc2c1[nH]c1nc(Cc3cnc(C)nc3)nc(N3CC4C(N)C4C3)c12 (centres unmarked) [drawing 1736]
SA MIC [1]: ≤ 0.5 µg/mL
EC8 MIC ([2]; EC8 not defined): 0.25 µg/mL

CNc1ncnc2c1[nH]c1nc(Oc3cnc(C)nc3)nc(N3CC(N)C4(CC4)C3)c12 (centres unmarked) [Compound 7.08]
MIC [1, 5]: 16 µg/mL (≈ 38.2 µM)
MIC [2, 6]: > 64 µg/mL

CNc1cccc2c1[nH]c1nc(Oc3cnc(C)nc3)cc(N3CC[C@@H](N)C3)c12 [Compound 3.5]
MIC [1, 5]: 0.25 µg/mL (≈ 0.642 µM)
MIC [2, 6]: ≤ 0.5 µg/mL

CNc1cc(F)cc2c1[nH]c1nc(Oc3cnc(SC)nc3)nc(N3CC4CC(N)C4C3)c12 (centres unmarked) [Compound 4.201]
MIC Sa [1, 3]: ≤0.5 µg/mL
MIC Ec [2, 4]: ≤0.5 µg/mL

CNc1nccc2c1[nH]c1nc(Sc3cnc4nccnc4c3)nc(N3CC[C@@H](N)C3)c12 [Compound 7.01]
MIC [1, 5]: 8 µg/mL (≈ 18 µM)
MIC [2, 6]: > 64 µg/mL

CNc1cc(F)cc2c1[nH]c1nc(Oc3cnc(C)nc3)nc(N3CCC(F)(CN)CC3)c12 [Compound 4.159]
MIC Sa [1, 3]: ≤0.5 µg/mL
MIC Ec [2, 4]: ≤0.5 µg/mL

CNc1cccc2c1[nH]c1nc(Oc3ccc(C(=O)O)nc3)cc(N3CC4C(N)C4C3)c12 (centres unmarked) [Compound 3.22]
MIC [1, 5]: 16 µg/mL (≈ 37.2 µM)
MIC [2, 6]: 64 µg/mL (≈ 149 µM)

CNc1cc(F)cc2c1[nH]c1nc(Oc3cnc(C(C)C)nc3)nc(N3CCC4(CC4N)C3)c12 (centres unmarked) [Compound 4.235]
MIC Sa [1, 3]: ≤0.5 µg/mL
MIC Ec [2, 4]: ≤0.5 µg/mL

CNc1cc(F)cc2c1[nH]c1nc(Oc3cnc(C(C)O)c(Cl)c3)nc(N3C[C@H]4C[C@@H]3C[C@H]4N)c12 (some centres unmarked) [Compound 10.15]
MIC Sa ([1]; Table 18, Sa): ≤ 0.5 µg/mL
MIC Ec ([2]; Table 18, Ec): ≤ 0.5 µg/mL

CNc1ncc(Oc2nc(N3CCC4(CC[C@H]4N)C3)c3c(n2)[nH]c2c(NC)cc(F)cc23)cn1 (some centres unmarked) [Compound 10.102]
MIC Sa ([1]; Table 18, Sa): ≤ 0.5 µg/mL
MIC Ec ([2]; Table 18, Ec): ≤ 0.5 µg/mL

CNc1cc(F)cc2c1[nH]c1nc(Oc3cnc4c(c3)C(=O)OC4(C)C)nc(N3C[C@H]4C[C@@H]3C[C@H]4N)c12 [Compound 10.72]
MIC Sa ([1]; Table 18, Sa): ≤ 0.5 µg/mL
MIC Ec ([2]; Table 18, Ec): ≤ 0.5 µg/mL

CNc1cccc2c1[nH]c1nc(Sc3cnc4cccnc4c3)nc(N3CC4CNC(C4)C3)c12 (centres unmarked) [Compound 1.47]
MIC [1, 5]: ≤ 0.5 µg/mL
MIC [2, 6]: 2 µg/mL (≈ 4.27 µM)

CNc1cc(F)cc2c1[nH]c1nc(Oc3cnc4c(C)cnn4c3)nc(N3C[C@H](N)C4(CC4)C3)c12 [Compound 10.20]
MIC Sa ([1]; Table 18, Sa): ≤ 0.5 µg/mL
MIC Ec ([2]; Table 18, Ec): ≤ 0.5 µg/mL

CNc1ncnc2c1[nH]c1nc(Oc3cnc(C)nc3)nc(N3CCC4(CC4N)C3)c12 (centres unmarked) [Compound 7.09]
MIC [1, 5]: 8 µg/mL (≈ 19.1 µM)
MIC [2, 6]: > 64 µg/mL

CNc1cc(F)cc2c1[nH]c1nc(Oc3cnc(C)nc3)nc(N3C[C@@H]4C(N)CC(C)(C)[C@@H]4C3)c12 (some centres unmarked) [Compound 4.097]
MIC Sa [1, 3]: ≤0.5 µg/mL
MIC Ec [2, 4]: 2 µg/mL (≈ 4.2 µM)

CNc1cc(F)cc2c1[nH]c1nc(Oc3cnc(N(C)N)nc3)nc(N3C[C@H]4C[C@@H]3C[C@H]4N)c12 [Compound 10.98]
MIC Sa ([1]; Table 18, Sa): ≤ 0.5 µg/mL
MIC Ec ([2]; Table 18, Ec): ≤ 0.5 µg/mL

CNc1cc(F)cc2c1[nH]c1nc(Cc3cnn(C)c3)nc(N3C[C@H]4C[C@@H]3C[C@H]4N)c12 [drawing 1734]
SA MIC [1]: 1 µg/mL
EC8 MIC ([2]; EC8 not defined): 8 µg/mL

CNc1cc(F)cc2c1[nH]c1nc(Oc3cnc(C)nc3)nc(N3CC4C(C3)C4NC(=O)CN)c12 (centres unmarked) [Compound 4.078]
MIC Sa [1, 3]: ≤0.5 µg/mL
MIC Ec [2, 4]: 8 µg/mL (≈ 16.8 µM)

CNc1cc(F)cc2c1[nH]c1nc(Oc3cnc(C)nc3)nc(N3CCOCC3)c12 [Compound 10.54]
MIC Sa ([1]; Table 18, Sa): ≤ 0.5 µg/mL
MIC Ec ([2]; Table 18, Ec): ≤ 0.5 µg/mL

CNc1cc(F)cc2c1[nH]c1nc3nc(c12)NCCCCNC(=O)CSc1ncc(cn1)O3
MIC [1, 7]: ≤ 0.5 µg/mL
MIC [2, 8]: 2 µg/mL (≈ 4.27 µM)

CNc1cc(F)cc2c1[nH]c1nc(Oc3cnc(C)nc3)nc(N3CCC(N)(C(F)(F)F)C3)c12 (centres unmarked)
MIC ([1]; ATCC13709, Table 16, new R4 substituents, read-out: SA MIC): ≤ 0.5 µg/mL
MIC ([2]; ATCC25922, Table 16, new R4 substituents, EC8 not defined, read-out: EC8 MIC): 1 µg/mL (≈ 2.1 µM)

CNc1cc(F)cc2c1[nH]c1nc(Oc3cnc(C(C)O)c(Cl)c3)nc(N3CC4C[C@@H](N)C4C3)c12 (some centres unmarked) [Compound 10.17]
MIC Sa ([1]; Table 18, Sa): ≤ 0.5 µg/mL
MIC Ec ([2]; Table 18, Ec): ≤ 0.5 µg/mL

CNc1cc(F)cc2c1[nH]c1nc(Oc3cnc(N4CCOCC4)nc3)nc(N3CCC4(CC4N)C3)c12 (centres unmarked) [Compound 4.214]
MIC Sa [1, 3]: ≤0.5 µg/mL
MIC Ec [2, 4]: 2 µg/mL (≈ 3.96 µM)

CNc1cc(F)cc2c1[nH]c1nc(Oc3ccc4sc(C)nc4c3)nc(N3CC4CCC(N)C4C3)c12 (centres unmarked) [Compound 4.322]
MIC Sa [1, 3]: ≤0.5 µg/mL
MIC Ec [2, 4]: ≤0.5 µg/mL
